In PMC6199744, “Development of Chemical Proteomics for the Folateome and Analysis of the Kinetoplastid Folateome” (ACS Infectious Diseases, 2018):
Like-named read-outs stand apart in the source and are kept apart here.

Assays:
Assay type in all cases: binding
[1] = target: T1, HeLa cell extract proteins (Homo sapiens, UniProt O14744)
T1 construct: endogenous in cells; host or cells: HeLa cell extract

[2] = target: T2, HeLa cell extract proteins (Homo sapiens, UniProt P00558)
T2 construct: endogenous in cells; host or cells: HeLa cell extract
T2 sequence (P00558 1-417): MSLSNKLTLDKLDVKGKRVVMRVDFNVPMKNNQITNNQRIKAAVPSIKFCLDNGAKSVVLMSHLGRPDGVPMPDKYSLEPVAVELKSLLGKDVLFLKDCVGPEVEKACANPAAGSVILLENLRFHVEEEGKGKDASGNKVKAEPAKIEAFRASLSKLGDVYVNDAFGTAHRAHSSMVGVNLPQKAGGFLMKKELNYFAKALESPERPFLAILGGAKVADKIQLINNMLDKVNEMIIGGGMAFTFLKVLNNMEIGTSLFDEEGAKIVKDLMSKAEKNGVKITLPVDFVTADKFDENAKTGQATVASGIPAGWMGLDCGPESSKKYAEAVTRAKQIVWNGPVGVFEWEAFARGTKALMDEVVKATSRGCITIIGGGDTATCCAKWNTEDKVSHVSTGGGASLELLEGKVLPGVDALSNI

[3] = target: T3, HeLa cell extract proteins (Homo sapiens, UniProt P57678)
T3 construct: endogenous in cells; host or cells: HeLa cell extract
T3 sequence (P57678 1-1058): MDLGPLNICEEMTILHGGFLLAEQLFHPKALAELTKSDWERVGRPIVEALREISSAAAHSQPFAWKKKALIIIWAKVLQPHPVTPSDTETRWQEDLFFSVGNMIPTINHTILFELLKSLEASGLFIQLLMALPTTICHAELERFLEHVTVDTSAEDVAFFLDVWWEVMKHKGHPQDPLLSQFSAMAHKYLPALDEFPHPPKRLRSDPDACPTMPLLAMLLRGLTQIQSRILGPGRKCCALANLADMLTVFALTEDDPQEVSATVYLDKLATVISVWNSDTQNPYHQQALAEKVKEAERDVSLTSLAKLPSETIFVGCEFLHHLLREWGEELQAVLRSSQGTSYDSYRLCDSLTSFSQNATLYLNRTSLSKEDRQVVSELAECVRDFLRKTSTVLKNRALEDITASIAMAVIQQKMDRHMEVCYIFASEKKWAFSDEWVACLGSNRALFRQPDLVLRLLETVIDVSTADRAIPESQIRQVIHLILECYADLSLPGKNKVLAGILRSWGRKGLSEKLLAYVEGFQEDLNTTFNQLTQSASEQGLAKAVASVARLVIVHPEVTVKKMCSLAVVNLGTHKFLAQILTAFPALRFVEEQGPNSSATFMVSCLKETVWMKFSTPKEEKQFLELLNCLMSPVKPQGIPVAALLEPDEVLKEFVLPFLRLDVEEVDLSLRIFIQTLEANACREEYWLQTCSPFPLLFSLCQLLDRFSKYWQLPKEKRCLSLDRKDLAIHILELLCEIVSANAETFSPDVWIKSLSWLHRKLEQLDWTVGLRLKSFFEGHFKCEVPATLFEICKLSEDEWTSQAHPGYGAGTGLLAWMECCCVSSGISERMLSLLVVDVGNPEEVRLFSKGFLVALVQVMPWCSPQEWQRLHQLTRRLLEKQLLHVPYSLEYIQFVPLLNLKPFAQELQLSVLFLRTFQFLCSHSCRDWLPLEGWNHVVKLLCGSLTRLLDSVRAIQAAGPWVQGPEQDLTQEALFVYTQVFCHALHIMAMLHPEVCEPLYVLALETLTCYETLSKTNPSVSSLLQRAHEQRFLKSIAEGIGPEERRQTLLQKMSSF

[4] = target: T4, HeLa cell extract proteins (Homo sapiens, UniProt P60900)
T4 construct: endogenous in cells; host or cells: HeLa cell extract
T4 sequence (P60900 whole entry): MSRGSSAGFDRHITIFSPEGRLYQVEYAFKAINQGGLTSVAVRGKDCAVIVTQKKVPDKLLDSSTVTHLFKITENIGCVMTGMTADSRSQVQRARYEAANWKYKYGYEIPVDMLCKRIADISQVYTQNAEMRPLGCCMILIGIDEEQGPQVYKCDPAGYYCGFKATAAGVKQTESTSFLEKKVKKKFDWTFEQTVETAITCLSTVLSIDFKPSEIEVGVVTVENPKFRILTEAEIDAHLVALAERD

[5] = target: T5, HeLa cell extract proteins (Homo sapiens, UniProt Q02790)
T5 construct: endogenous in cells; host or cells: HeLa cell extract
T5 sequence (Q02790 1-459): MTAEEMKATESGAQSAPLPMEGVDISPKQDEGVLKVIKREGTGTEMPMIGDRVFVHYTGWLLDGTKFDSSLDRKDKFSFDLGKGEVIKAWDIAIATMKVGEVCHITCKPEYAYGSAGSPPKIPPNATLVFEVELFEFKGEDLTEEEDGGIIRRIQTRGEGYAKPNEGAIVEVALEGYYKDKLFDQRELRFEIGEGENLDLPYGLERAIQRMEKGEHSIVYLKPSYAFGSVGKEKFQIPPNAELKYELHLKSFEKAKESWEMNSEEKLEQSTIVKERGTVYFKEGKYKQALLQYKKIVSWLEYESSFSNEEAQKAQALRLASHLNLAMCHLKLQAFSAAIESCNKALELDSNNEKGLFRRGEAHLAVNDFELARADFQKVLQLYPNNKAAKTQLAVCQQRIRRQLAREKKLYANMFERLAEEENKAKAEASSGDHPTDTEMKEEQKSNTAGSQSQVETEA

[6] = target: T6, HeLa cell extract proteins (Homo sapiens, UniProt Q71U36)
T6 construct: endogenous in cells; host or cells: HeLa cell extract
T6 sequence (Q71U36 whole entry): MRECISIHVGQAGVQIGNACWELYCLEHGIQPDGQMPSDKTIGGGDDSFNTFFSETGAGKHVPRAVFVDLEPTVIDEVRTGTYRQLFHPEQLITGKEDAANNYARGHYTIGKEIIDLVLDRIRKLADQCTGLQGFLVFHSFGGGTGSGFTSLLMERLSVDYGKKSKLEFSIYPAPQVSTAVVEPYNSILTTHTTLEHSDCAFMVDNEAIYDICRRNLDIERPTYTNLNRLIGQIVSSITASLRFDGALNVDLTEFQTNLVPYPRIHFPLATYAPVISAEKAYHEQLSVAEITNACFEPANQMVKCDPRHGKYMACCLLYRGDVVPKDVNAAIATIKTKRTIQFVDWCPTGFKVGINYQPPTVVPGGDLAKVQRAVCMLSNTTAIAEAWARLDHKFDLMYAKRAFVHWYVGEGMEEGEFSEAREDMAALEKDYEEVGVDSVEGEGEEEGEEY

[7] = target: T7, HeLa cell extract proteins (Homo sapiens, UniProt Q969S8)
T7 construct: endogenous in cells; host or cells: HeLa cell extract
T7 sequence (Q969S8 1-669): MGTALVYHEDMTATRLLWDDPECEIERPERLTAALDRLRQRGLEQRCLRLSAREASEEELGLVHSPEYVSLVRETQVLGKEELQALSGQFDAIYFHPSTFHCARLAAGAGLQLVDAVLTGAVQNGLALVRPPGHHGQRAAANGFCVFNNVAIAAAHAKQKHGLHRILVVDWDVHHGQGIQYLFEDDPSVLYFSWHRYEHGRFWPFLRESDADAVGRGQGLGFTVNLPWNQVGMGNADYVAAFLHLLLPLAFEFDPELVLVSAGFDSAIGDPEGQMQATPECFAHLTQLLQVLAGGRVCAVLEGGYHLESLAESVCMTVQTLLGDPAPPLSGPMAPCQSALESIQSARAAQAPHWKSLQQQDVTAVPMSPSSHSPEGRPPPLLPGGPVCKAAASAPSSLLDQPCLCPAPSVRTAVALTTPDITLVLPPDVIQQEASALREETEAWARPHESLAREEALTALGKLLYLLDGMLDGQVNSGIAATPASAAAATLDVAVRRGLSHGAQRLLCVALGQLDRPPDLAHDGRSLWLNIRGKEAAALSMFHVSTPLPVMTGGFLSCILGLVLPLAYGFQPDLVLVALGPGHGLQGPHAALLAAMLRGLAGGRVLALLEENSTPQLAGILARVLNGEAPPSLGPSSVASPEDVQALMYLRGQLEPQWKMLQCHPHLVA

[8] = HeLa, protein PGK1 (PHOSPHOGLYCERATE KINASE 1.)
[9] = HeLa, protein FKBP4 (FK506-BINDING PROTEIN 4.)

T1 sequence (O14744 whole entry): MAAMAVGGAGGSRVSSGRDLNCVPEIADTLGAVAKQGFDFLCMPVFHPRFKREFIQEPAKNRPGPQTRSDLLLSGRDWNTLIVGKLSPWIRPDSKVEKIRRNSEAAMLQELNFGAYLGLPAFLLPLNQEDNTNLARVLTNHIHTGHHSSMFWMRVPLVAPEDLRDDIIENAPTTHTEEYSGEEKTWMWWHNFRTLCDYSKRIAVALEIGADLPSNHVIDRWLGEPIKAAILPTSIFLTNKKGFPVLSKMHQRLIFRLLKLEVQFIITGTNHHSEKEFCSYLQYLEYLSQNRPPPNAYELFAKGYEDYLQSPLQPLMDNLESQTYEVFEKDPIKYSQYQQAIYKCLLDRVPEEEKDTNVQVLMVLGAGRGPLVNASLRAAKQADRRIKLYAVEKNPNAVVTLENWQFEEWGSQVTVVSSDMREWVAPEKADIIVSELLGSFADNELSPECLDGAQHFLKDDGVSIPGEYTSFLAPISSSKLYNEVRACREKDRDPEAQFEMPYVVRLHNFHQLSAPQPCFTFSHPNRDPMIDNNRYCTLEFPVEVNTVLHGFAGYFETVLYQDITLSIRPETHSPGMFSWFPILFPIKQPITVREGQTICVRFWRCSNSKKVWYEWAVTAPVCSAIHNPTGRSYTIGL

Row | SMILES | fold changes relative to vehicle control ([1]; protein PRMT5, HeLa) | fold changes relative to vehicle control ([2]; HeLa, protein PGK1) | fold changes relative to vehicle control ([3]; HeLa, protein GEMIN4) | fold changes relative to vehicle control ([4]; HeLa, protein PSMA6) | fold changes relative to vehicle control ([5]; HeLa, protein FKBP4) | fold changes relative to vehicle control ([6]; HeLa, protein TUBA1A) | fold changes relative to vehicle control ([7]; HeLa, protein HDAC10) | fold changes relative to vehicle control [1] | fold changes relative to vehicle control [2] | fold changes relative to vehicle control [3] | fold changes relative to vehicle control [4] | fold changes relative to vehicle control [5] | fold changes relative to vehicle control [6] | fold changes relative to vehicle control [7] | fold changes relative to vehicle control [2, 8] [fold] | fold changes relative to vehicle control ([3]; captured protein GEMIN4, HeLa) | fold changes relative to vehicle control ([4]; protein PSMA6, HeLa) | fold changes relative to vehicle control [5, 9] [fold] | fold changes relative to vehicle control ([7]; captured protein HDAC10, HeLa) | fold changes relative to vehicle control ([2]; HeLa, protein PGK1 (PHOSPH[…] 1.)) [fold]
1 | Nc1nc2c(c(=O)[nH]1)N(C=O)C(CNc1ccc(C(=O)N[C@@H](CCC(=O)O)C(=O)O)cc1)CN2 (stereo partly shown) [LEU, leucovorin] | 0.96 | 1.1 | 0.93 | 1.02 | 1.01 | 0.95 | 0.95 | – | – | – | – | – | – | – | – | – | – | – | – | –
2 | Nc1nc2[nH]cc(CCc3ccc(C(=O)N[C@@H](CCC(=O)O)C(=O)O)cc3)c2c(=O)[nH]1 [PTX, pemetrexed] | – | – | – | – | – | – | – | 0.99 | 1.11 | 0.94 | 1 | 1.18 | 0.91 | 0.85 | – | – | – | – | – | –
3 | CCCCCCOc1ccc(Cc2cnc(N)nc2N)cc1 [compound 1] | 0.93 | – | – | – | – | 0.95 | – | – | – | – | – | – | – | – | 1.5 | 0.88 | 1.1 | 1.48 | 0.82 | –
4 | CCCCCCOc1cccc(Cc2cnc(N)nc2N)c1 [compound 2] | 1.12 | – | – | – | – | 0.92 | – | – | – | – | – | – | – | – | 2.59 | 0.92 | 1.27 | 2.28 | 0.88 | –
5 | Nc1nc2cccc(-c3ccccc3)c2n1Cc1ccc(Cl)c(Cl)c1 [compound 3] | 0.85 | – | – | – | – | 1.06 | – | – | – | – | – | – | – | – | – | 1.02 | 1.02 | 1.05 | 0.9 | 0.8
6 | NCCOCCOCC(=O)Nc1nc2ncc(CNc3ccc(C(=O)NC(CCC(=O)O)C(=O)O)cc3)nc2c(=O)[nH]1 (stereo not shown) [compound 6] | 1.21 | 1.28 | 1.02 | 1 | 1.4 | 0.97 | 0.82 | – | – | – | – | – | – | – | – | – | – | – | – | –
7 | NCCCNc1ccc(C(=O)NC(CCC(=O)O)C(=O)O)cc1 (stereo not shown) [compound 7] | 1.05 | 0.92 | 0.99 | 1 | 1.05 | 1 | 0.95 | – | – | – | – | – | – | – | – | – | – | – | – | –
